Results taken from PubChem BioAssay AID248 (DTP/NCI, 2004).
Inconclusive results and toxic doses are left out. Rule as the data show it: active = T/C of 150% or more; inactive = T/C below 125%.

Test system: L1210 leukemia ip in BDF1 mice, survival T/C
Test: NCI In Vivo Anticancer Drug Screen. Data for tumor model L1210 Leukemia (intraperitoneal) in B6D2F1 (BDF1) mice
Details: endpoint: mean survival time, higher = longer survival
Summary of the method: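 Each compound was tested against a transplantable tumor grown in mice. The endpoint was survival, with treated animals benchmarked against vehicle controls as a simple ratio.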

[1] = dose: 100.0 mg/kg/injection, schedule: Q04DX003 (ip), vehicle: saline with Tween-80
[2] = dose: 200.0 mg/kg/injection, schedule: Q04DX003 (ip), vehicle: saline with Tween-80
[3] = dose: 400.0 mg/kg/injection, schedule: Q04DX003 (ip), vehicle: saline with Tween-80
[4] = dose: 100.0 mg/kg/injection, schedule: Q01DX009 (ip), vehicle: Klucel (hydroxypropylcellulose) (HPC)
[5] = dose: 100.0 mg/kg/injection, schedule: Q04DX003 (ip), vehicle: Klucel (hydroxypropylcellulose) (HPC)
[6] = dose: 200.0 mg/kg/injection, schedule: Q01DX009 (ip), vehicle: Klucel (hydroxypropylcellulose) (HPC)
[7] = dose: 200.0 mg/kg/injection, schedule: Q04DX003 (ip), vehicle: Klucel (hydroxypropylcellulose) (HPC)
[8] = dose: 400.0 mg/kg/injection, schedule: Q01DX009 (ip), vehicle: Klucel (hydroxypropylcellulose) (HPC)
[9] = dose: 400.0 mg/kg/injection, schedule: Q04DX003 (ip), vehicle: Klucel (hydroxypropylcellulose) (HPC)
[10] = dose: 100.0 mg/kg/injection, schedule: Q01DX001 (ip), vehicle: carboxymethylcellulose (CMC)
[11] = dose: 200.0 mg/kg/injection, schedule: Q01DX001 (ip), vehicle: carboxymethylcellulose (CMC)
[12] = dose: 400.0 mg/kg/injection, schedule: Q01DX001 (ip), vehicle: carboxymethylcellulose (CMC)
[13] = dose: 100.0 mg/kg/injection, schedule: Q01DX009 (ip), vehicle: saline with Tween-80
[14] = dose: 200.0 mg/kg/injection, schedule: Q01DX009 (ip), vehicle: saline with Tween-80
[15] = dose: 400.0 mg/kg/injection, schedule: Q01DX009 (ip), vehicle: saline with Tween-80
[16] = dose: 25.0 mg/kg/injection, schedule: Q01DX009 (ip), vehicle: saline with Tween-80
[17] = dose: 100.0 mg/kg/injection, schedule: Q01DX001 (ip), vehicle: saline
[18] = dose: 200.0 mg/kg/injection, schedule: Q01DX001 (ip), vehicle: saline
[19] = dose: 400.0 mg/kg/injection, schedule: Q01DX001 (ip), vehicle: saline

Measured: T/C

Cc1c([N+](=O)[O-])cc(NC(=O)/C=C\C(=O)O)cc1[N+](=O)[O-]
inactive: [1] 113 % of control | [2] 113 % of control | [3] 109 % of control

COC(=O)c1ccc(C(=O)OC)c(=O)[nH]1
inactive: [4] 109 % of control | [5] 103 % of control | [6] 101 % of control | [7] 102 % of control | [8] 102 % of control | [9] 97 % of control

Cc1cn(-c2ccccc2)c(C)c(C(=O)O)c1=O
inactive: dose: 100.0 mg/kg/injection, schedule: Q01DX001 (ip), vehicle: other 101 % of control | dose: 200.0 mg/kg/injection, schedule: Q01DX001 (ip), vehicle: other 102 % of control | dose: 400.0 mg/kg/injection, schedule: Q01DX001 (ip), vehicle: other 91 % of control

CCSCCOP(=S)(N(CC)CC)N(CC)CC
inactive: dose: 100.0 mg/kg/injection, schedule: Q04DX002 (ip), vehicle: saline with Tween-80 88 % of control | dose: 200.0 mg/kg/injection, schedule: Q04DX002 (ip), vehicle: saline with Tween-80 95 % of control | dose: 400.0 mg/kg/injection, schedule: Q04DX002 (ip), vehicle: saline with Tween-80 104 % of control

CNc1cc(N)ncn1
inactive: dose: 25.0 mg/kg/injection, schedule: Q01DX Z (ip), vehicle: saline 90 % of control | dose: 75.0 mg/kg/injection, schedule: Q01DX Z (ip), vehicle: saline 93 % of control

CCc1nc(N)nc(N)c1-c1ccc(N(CCCl)CCCl)cc1
inactive: dose: 13.0 mg/kg/injection, schedule: Q01DX Z (ip), vehicle: methylcellulose (MC) 108 % of control | dose: 20.0 mg/kg/injection, schedule: Q01DX Z (ip), vehicle: methylcellulose (MC) 103 % of control | dose: 30.0 mg/kg/injection, schedule: Q01DX Z (ip), vehicle: methylcellulose (MC) 108 % of control | dose: 45.0 mg/kg/injection, schedule: Q01DX Z (ip), vehicle: methylcellulose (MC) 113 % of control

C1CNC(NC23CC4CC(CC(C4)C2)C3)=N1
inactive: [4] 98 % of control

CCOC(=O)c1nnn(-c2cccnc2)c1C
inactive: dose: 100.0 mg/kg/injection, schedule: Q04DX002 (ip), vehicle: saline 99 % of control | dose: 200.0 mg/kg/injection, schedule: Q04DX002 (ip), vehicle: saline 101 % of control | dose: 400.0 mg/kg/injection, schedule: Q04DX002 (ip), vehicle: saline 92 % of control

CCS(=O)(=O)C(c1ccccc1)S(=O)(=O)CC
inactive: [10] 95 % of control | [11] 87 % of control | [12] 98 % of control

O=C(NO)C1CCC(C(=O)NO)CC1 (centres undefined)
inactive: [13] 92 % of control | [14] 89 % of control | [15] 89 % of control

CC(=O)O[C@H]1CC[C@@]2(C)C(=CC[C@H]3[C@@H]4C[C@@H](N5CC5)[C@H](C(C)=O)[C@@]4(C)CC[C@@H]32)C1
inactive: dose: 50.0 mg/kg/injection, schedule: Q01DX001 (sc), vehicle: steriod suspending solution 100 % of control | dose: 100.0 mg/kg/injection, schedule: Q01DX001 (sc), vehicle: steriod suspending solution 102 % of control | dose: 200.0 mg/kg/injection, schedule: Q01DX001 (sc), vehicle: steriod suspending solution 107 % of control | dose: 400.0 mg/kg/injection, schedule: Q01DX001 (sc), vehicle: steriod suspending solution 117 % of control

O=[N+]([O-])c1ccc2nc3c(nc2c1)-c1cccc2cccc-3c12
inactive: [16] 89 % of control | dose: 50.0 mg/kg/injection, schedule: Q01DX009 (ip), vehicle: saline with Tween-80 91 % of control | [13] 94 % of control | [1] 97 % of control | [2] 97 % of control | [3] 103 % of control

[O-][N+](CCO)(CCO)Cc1ccccc1
inactive: dose: 50.0 mg/kg/injection, schedule: Q01DX001 (ip), vehicle: saline 103 % of control | [17] 103 % of control | [18] 103 % of control | [19] 101 % of control

CN1CCCCC1c1ccccc1 (centres undefined)
inactive: dose: 75.0 mg/kg/injection, schedule: Q01DX001 (ip), vehicle: saline 103 % of control

O=S(=O)(Cl)c1ccc(F)cc1
inactive: [13] 98 % of control | [14] 96 % of control | [15] 90 % of control

NOCc1cscn1
inactive: [17] 98 % of control | [18] 101 % of control | [19] 101 % of control

COC(=O)/C=C/C=C(c1ccccc1)c1ccccc1
inactive: [10] 93 % of control | [11] 102 % of control | [12] 102 % of control

CNc1cnc(Cl)nc1Cl
inactive: dose: 50.0 mg/kg/injection, schedule: Q01DX001 (ip), vehicle: acetone 98 % of control | dose: 100.0 mg/kg/injection, schedule: Q01DX001 (ip), vehicle: acetone 93 % of control | dose: 200.0 mg/kg/injection, schedule: Q01DX001 (ip), vehicle: acetone 97 % of control

CCOc1ccccc1NC(=O)Nc1cccc2ccccc12
inactive: [4] 104 % of control | [5] 90 % of control | [6] 96 % of control | [7] 91 % of control | [8] 102 % of control | [9] 88 % of control

NS(=O)(=O)CS(N)(=O)=O
inactive: [17] 100 % of control | [18] 96 % of control | [19] 96 % of control

O=C(OC12CCCC1CC2)c1ccc([N+](=O)[O-])cc1 (centres undefined)
inactive: [1] 91 % of control | [2] 103 % of control | [3] 100 % of control

Clc1nc2ccccc2nc1CI
inactive: dose: 6.25 mg/kg/injection, schedule: Q01DX009 (ip), vehicle: Klucel (hydroxypropylcellulose) (HPC) 94 % of control | dose: 12.5 mg/kg/injection, schedule: Q01DX009 (ip), vehicle: Klucel (hydroxypropylcellulose) (HPC) 102 % of control | [16] 89 % of control | dose: 25.0 mg/kg/injection, schedule: Q04DX003 (ip), vehicle: Klucel (hydroxypropylcellulose) (HPC) 102 % of control | dose: 50.0 mg/kg/injection, schedule: Q04DX003 (ip), vehicle: Klucel (hydroxypropylcellulose) (HPC) 90 % of control

COc1cc2c(cc1OC)C(CNC(=O)/C=C/c1ccccc1)C2 (centres undefined)
inactive: [4] 106 % of control | [5] 101 % of control | [6] 101 % of control | [7] 94 % of control | [8] 95 % of control | [9] 97 % of control

O=[N+]([O-])c1cccc(S/N=C/c2ccccc2O)c1
inactive: dose: 100.0 mg/kg/injection, schedule: Q04DX002 (ip), vehicle: Klucel (hydroxypropylcellulose) (HPC) 102 % of control | dose: 200.0 mg/kg/injection, schedule: Q04DX002 (ip), vehicle: Klucel (hydroxypropylcellulose) (HPC) 97 % of control | dose: 400.0 mg/kg/injection, schedule: Q04DX002 (ip), vehicle: Klucel (hydroxypropylcellulose) (HPC) 108 % of control
